What was measured:
[1] = test system: NF-κB-p65; test: LPS-induced NF-κB-p65 nuclear translocation in BV2 cells (immunocytochemistry); assay type: cell-based, murine; details: BANA 10, 20, 30 μM, BA 30 μM or DMF for 3 hrs before LPS 100 ng/ml
Method: The effect of BANA on nuclear translocation of NF-κB was studied by immunocytochemistry using murine microglia cell line BV2.
Cells were then treated with BANA (10, 20 and 30 μM) or B.A (30 μM) for 3 hrs. After treatment, cells were stimulated with LPS (100 ng/ml) for 30 minutes. Then, cells were washed and fixed with PFA 4% for 20 minutes at 4° C. and washed with PBS. Immunocytochemistry was performed as follows: cells were permeabilized using 0.5% Triton in PBS for 15 minutes, and then blocked using 5% of BSA for 1 h at room temperature. Rabbit anti-NF-κB-p65 (ab16502, 1/200) and mouse anti-CD11b (BD550219, 1/100) were incubated overnight at 4° C. After that, primary antibodies were removed, washed with PBS 3 times for 10 minutes, and Alexa-fluor-conjugated goat anti-rabbit or goat anti-mouse antibodies (1:1000) were incubated for 2 h at room temperature. After secondary antibodies were removed, cells were covered in glycerol mounting medium with 1/2000 DAPI staining. Cells were analyzed by confocal microscopy using a confocal ZEISS LSM 800. NF-κB-p65+ nuclei were counted and ratio of DAPI to NF-κB-p65 labeling was compared among groups. Data were analyzed using analyzing tools of ImageJ and GraphPad Prism 7 software.

[2] = test system: NLRP3 inflammasome; test: Inflammasome activation in THP-1 cells (LPS and ATP), IL-1β ELISA; assay type: cell-based, Human; details: 30 μM, in first or second signal (LPS and ATP), compared with vehicle
Method: The effect of BANA or BA over NF-κB-dependent gene expression was studied by qPCR using THP-1 cells. THP-1 cells were differentiated into macrophages and treated with BANA (30 μM) or BA (30 μM) for 2 hs, followed by stimulation with LPS (100 ng/mL, for 3-4 h).
For inflammasome activation, THP-1 cells were treated with LPS (as above) followed by exposure to ATP (5 mM, 45 min). IL-1β in the supernatant was then measured by ELISA (B&D OptEIA TM, San Diego, CA, USA).

[3] = test system: NF-κB-p65; test: LPS-induced NF-κB-p65 nuclear translocation in SOD1^G93A primary microglia; assay type: cell-based, rat; details: BANA 10-30 μM before LPS
Method: FIG. 8D: Confocal images show CD11b-positive SOD1^G93A primary microglia (grey) treated with BANA, BA or vehicle, before LPS stimulation. […] Nuclear NF-κB-p65 colocalizing with DAPI nuclear staining is denoted in yellow.
Nuclear NF-κB-p65 colocalizing with DAPI nuclear staining is denoted in yellow. […] Scale bar=20 μm. […] 2 replicates of 3 independent experiments.
The effects of BANA on LPS- or TNFα-induced NF-κB activation were also assayed in cell cultures of BV2 microglial cell line and primary adult microglia isolated from symptomatic SOD1^G93A rats, and HT-29 NF-κB reporter cell line, respectively.

## O=C(O)c1ccccc1 [benzoic acid, reference compound]
[1]
  LPS-induced NF-κB-p65 nuclear translocation: devoid of inhibitory effect
[2]
  release of IL-1β: devoid of anti-inflammatory effects
[3]
  LPS-induced NF-κB-p65 nuclear translocation: devoid of inhibitory effect

Reference: US20260060947A1 (INSTITUT PASTEUR DE MONTEVIDEO, priority 2019, published 2026)
